From US20260116867A1, “PROTEOLYSIS TARGETING CHIMERAS FOR HUMAN PREGNANE X RECEPTOR AND FOR DEGRADATION OF GSPT1” (ST. JUDE CHILDREN'S RESEARCH HOSPITAL, priority 2022, published 2026)
One block for each compound: values may come before it.

Key:
[1] = system: SNU—C4 3xFLAG-PXR KI cells; experiment: Cytotoxicity assay (CellTiter-Glo, 72 h); assay type: cell-based, human; conditions: SNU—C4 3xFLAG-PXR KI cells, 72 h, FIG. 7A; read-out: half maximal cytotoxic concentration (CC50)
Procedure: (§1) The indicated cells (2.5×10^3/well in 40 μL RPMI with 10% FBS) were plated in the 384-well plates, resulting in 0.5% DMSO and the indicated concentrations of chemicals. After 72 h compound treatment, the CellTiter-Glo Luminescent Cell Viability Assay (Promega) and an EnVision microplate reader were used to assess cytotoxicity. Wells containing DMSO alone or 10 μM staurosporine served as negative and positive controls, respectively. The percent cell viability for each well was calculated using equation 1: […]

[2] = system: SNU—C4 3xFLAG-PXR KI cell lines stably expressing HA-tagged GSPT1^G575N; experiment: Cytotoxicity assay in cells overexpressing degradation-resistant GSPT1 mutant; assay type: cell-based, human; conditions: FIG. 7B-C
Procedure: Complete information for all plasmids is included in Table 1 below. […] Lentiviruses for pCDH-GSPT1 or pCDH-GSPT1^G575N were generated in 293T cells using psPAX2 and pMD2.G packaging vectors. The packaging vectors were gifts from Dr. Didier Trono (Addgene plasmid #12259 and 12260).
as §1

PXR [3] = target: T1, PXR (Homo sapiens, UniProt O75469); experiment: Western blot of endogenous 3xFLAG-PXR protein in SNU—C4 3xFLAG-PXR KI cells; assay type: cell-based; parameters: To assess SJPYT-195 activity against endogenous PXR, CRISPR-Cas9 was used; endogenous in cells; conditions: western blot, SNU—C4 3xFLAG-PXR KI cells
T1 sequence (O75469 1-434): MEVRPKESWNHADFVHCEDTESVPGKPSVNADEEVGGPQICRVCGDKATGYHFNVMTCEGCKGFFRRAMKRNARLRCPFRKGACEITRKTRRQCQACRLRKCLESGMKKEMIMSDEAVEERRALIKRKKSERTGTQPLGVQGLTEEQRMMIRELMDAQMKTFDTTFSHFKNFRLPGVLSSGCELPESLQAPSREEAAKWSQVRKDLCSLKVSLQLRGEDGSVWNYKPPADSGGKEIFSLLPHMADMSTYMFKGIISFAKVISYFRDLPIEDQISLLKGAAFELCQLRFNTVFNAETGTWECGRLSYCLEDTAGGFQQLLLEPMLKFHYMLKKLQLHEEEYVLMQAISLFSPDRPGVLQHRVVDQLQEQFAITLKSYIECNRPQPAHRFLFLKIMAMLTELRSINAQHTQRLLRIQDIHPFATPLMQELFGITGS
Procedure: The following day, DMSO or compounds were added to result in 0.5% DMSO and the indicated compound concentrations, and cells were incubated for the indicated time points. Cells were lysed and subjected to western blotting as above using antibodies against FLAG (Sigma-Aldrich, cat. #F3165, 1:2,000 dilution), GSPT1 (Abcam, cat. #ab126090, 1:4,000 dilution), and R-Actin (Cell Signaling Technology, cat. #4967, 1:2,000 dilution).

PXR [4] = target: T1, PXR; experiment: cell-based hPXR antagonistic assay
PXR [5] = target: T1, PXR; experiment: hPXR binding assay
PXR [6] = target: T1, PXR; experiment: cell-based hPXR agonistic assay
HiBiT-FKBP12^F36V-PXR = target: T2, HiBiT-FKBP12^F36V-PXR (Homo sapiens, UniProt O75469+P62942, F37V); experiment: HiBiT assay for degradation of overexpressed protein in HepG2 cells; assay type: cell-based; conditions: FIG. 2C
T2 construct: expressed in transfected cells; host or cells: HepG2 cells (transient, Lipofectamine 3000)
T2 sequence (P62942+O75469 fused P62942:F37V): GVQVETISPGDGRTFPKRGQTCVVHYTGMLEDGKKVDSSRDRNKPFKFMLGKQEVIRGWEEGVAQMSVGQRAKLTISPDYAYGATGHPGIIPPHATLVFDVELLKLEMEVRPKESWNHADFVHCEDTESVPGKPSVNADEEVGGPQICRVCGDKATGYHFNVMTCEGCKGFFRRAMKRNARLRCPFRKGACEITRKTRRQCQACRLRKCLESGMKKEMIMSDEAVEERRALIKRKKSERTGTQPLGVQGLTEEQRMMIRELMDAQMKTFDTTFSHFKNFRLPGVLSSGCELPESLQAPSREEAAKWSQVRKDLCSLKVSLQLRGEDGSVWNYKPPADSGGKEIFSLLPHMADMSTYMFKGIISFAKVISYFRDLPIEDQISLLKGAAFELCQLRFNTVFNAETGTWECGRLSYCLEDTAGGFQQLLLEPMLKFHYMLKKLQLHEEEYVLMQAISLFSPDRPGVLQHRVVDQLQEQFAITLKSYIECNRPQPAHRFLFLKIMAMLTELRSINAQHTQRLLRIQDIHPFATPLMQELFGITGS
T2 sequence (Q96SW2 whole entry partner): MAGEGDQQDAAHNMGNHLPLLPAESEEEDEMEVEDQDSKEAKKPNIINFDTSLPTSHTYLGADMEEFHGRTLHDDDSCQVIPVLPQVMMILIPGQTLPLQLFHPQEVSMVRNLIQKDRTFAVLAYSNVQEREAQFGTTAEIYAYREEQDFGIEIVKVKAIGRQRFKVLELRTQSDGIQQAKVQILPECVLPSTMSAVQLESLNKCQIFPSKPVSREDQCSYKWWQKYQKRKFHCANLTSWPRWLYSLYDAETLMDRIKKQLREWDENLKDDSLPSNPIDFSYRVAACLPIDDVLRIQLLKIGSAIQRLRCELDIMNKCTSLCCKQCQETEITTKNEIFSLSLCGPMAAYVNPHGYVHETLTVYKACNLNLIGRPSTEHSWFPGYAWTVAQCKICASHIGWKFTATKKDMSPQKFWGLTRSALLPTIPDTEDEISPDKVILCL
Procedure: HepG2 cells (5×10^6 cells/dish) were plated in tissue culture-treated 10 cm dishes in 10 mL EMEM with 10% FBS. The next day, cells were transfected with 5 μg pcDNA3-HiBiT-FKBP^F36V-2xHA-PXR and either 5 μg pcDNA3 vector or 5 μg pcDNA3-HA-CRBN using Lipofectamine 3000 (Thermo Fisher Scientific). After 24 h, cells were trypsinized, resuspended in assay media, and plated in white tissue culture-treated 384-well plates (1.5×10^4 cells/well in 25 μL medium). […] The plates were incubated for 24 h, and the Nano-Glo HiBiT Lytic Detection System (Promega) and an EnVision microplate reader were used to measure HiBiT signal. Results are reported as fold change relative to DMSO control cells.
To establish a method for discovery of PXR degraders in the absence of a known PXR-degrading control, the degradation tag (dTAG) system was used. With this method, a protein of interest (PXR) is fused to a cytosolic prolyl isomerase, FKBP12, with Phe36 mutated to Val (FKBP12^F36V) (FIG. 2A). A PROTAC molecule, dTAG-13 (FIG. 2B), is then used to induce degradation of the fusion protein through recruitment of the CUL4-RBX1-DDB1-CRBN (CRL4^CRBN) E3 ubiquitin ligase, without affecting the cellular FKBP12 protein. An HA tag was added for western blot detection, and a HiBiT tag was fused to the N-terminus to allow high-throughput plate-based quantification of HiBiT-FKBP12^F36V-PXR protein levels (FIG. 2A). […] This was also observed when the HA tag was detected by western blot (FIG. 2D). The HiBiT detection was more sensitive to protein level changes than western blot, and, importantly, overexpression of CRBN was required to achieve dTAG-13-mediated degradation of the overexpressed HiBiT-FKBP12^F36V-PXR protein.

PXR protein level (in words) (PXR [3]): also reduced PXR protein
SMILES: Cc1ccc(NC(=O)NCc2ccc3c(c2)CN(C2CCC(=O)NC2=O)C3=O)cc1Cl (centres unmarked) [CC-885, reference compound]
CC50 [1]: 3.3 ± 0.3 nM
cytotoxicity in cells overexpressing GSPT1^G575N [2]: partially resistant

SMILES: COc1ccc(OC)c(-n2nnc(C(=O)Nc3cc(C(C)(C)C)ccc3OCCCCOc3cccc4c3C(=O)N(C3CCC(=O)NC3=O)C4=O)c2C)c1 (centres unmarked) [Compound M12, N-(5-(tert-butyl)-2-(4-((2-(2,6-dioxopiperidin-3-yl)-1,3-dioxoisoindolin-4-yl)oxy)butoxy)phenyl)-1-(2,5-dimethoxyphenyl)-5-methyl-1H-1,2,3-triazole-4-carboxamide]
inhibition at 10 µM (PXR [4]; read-out: Antagonist (% inhibition at 10 μM)): 28%
IC50 (PXR [4]; read-out: Antagonist (IC50/μM)): 0.67 ± 0.26 µM
IC50 (PXR [5]): 0.032 ± 0.002 µM
inhibition at 10 µM (PXR [5]; read-out: Binding (% inhibition at 10 μM)): 56%
Agonist (% activation at 10 μM) (PXR [6]; 10 μM, rifampicin at 10 μM as 100% activation, DMSO (0.3%) as 0%): (33 ± 1)%
EC50 (PXR [6]; NA = no value within concentration range tested (highest 30 μM), read-out: Agonist (EC50/μM)): 0.27 ± 0.078 µM

HiBiT signal, CRBN co-overexpressed (HiBiT-FKBP12^F36V-PXR; HepG2 overexpressing HiBiT-FKBP12^F36V-PXR and CRBN): potently reduced HiBiT signal
HiBiT signal, without CRBN co-overexpression (HiBiT-FKBP12^F36V-PXR; HepG2 overexpressing HiBiT-FKBP12^F36V-PXR): only a slight reduction in HiBiT signal
SMILES: CC[C@H](C(=O)N1CCCC[C@H]1C(=O)O[C@H](CCc1ccc(OC)c(OC)c1)c1ccccc1OCC(=O)NCCCCCCOc1cccc2c1C(=O)N(C1CCC(=O)NC1=O)C2=O)c1cc(OC)c(OC)c(OC)c1 (some centres unmarked) [dTAG-13]
